Measurements as given in patent US20150150893A1, “ANDROGRAPHOLIDE ANALOGS AND THEIR USE FOR MEDICATION” (LIAONING LIFENG SCIENTIFIC & TECHNOLOGY DEVELOPMENT COMPANY …, priority 2012, published 2015).
Read-outs that look alike come from different tables or passages of the source.

Tests used:
Format in all cases: cell-based
[1] = test system: Venezuelan equine encephalitis virus; assay: microbe, parasite or virus in culture; details: read-out: In-Vitro Antiviral Screening Result (EC50) G
many virus = assay: Antivirus studies in vitro, summary over the virus panel; details: read-out: EC50 against many virus
Procedure: compounds were diluted to 20 mg/mL in DMSO then prepared in for log 10 dilutions of 100 μg/mL down to 0.1 μg/mL) in MEM solution with 50 μg/mL gentamicin and 2% FBS. Each dilution was added to 5 wells of a 96-well plate with 80-100% confluent cells. Three wells of each dilution were infected with virus, and two wells remained uninfected as toxicity controls. The multiplicity of infection (MOI) was as low as possible to achieve CPE within 3-5 days of incubation. A known active compound was tested in parallel as a control. After untreated virus control wells reached maximum cytopathic effect (CPE), each well was scored microscopically. Plates were then stained with neutral red dye for approximately 2 hours, then supernatant dye was removed from the wells and the incorporated dye was extracted in 50:50 Sorensen citrate buffer/ethanol, then the optical density was read on a spectrophotometer.

SARS coronavirus = assay: microbe, parasite or virus in culture; details: Severe acute respiratory syndrome coronavirus
Rift Valley fever virus = assay: microbe, parasite or virus in culture
[2] = test system: Japanese encepahalitis virus; details: read-out: In-Vitro Antiviral Screening Result (EC50) C
Influenza A virus H1N1 = assay: microbe, parasite or virus in culture; details: H1N1, read-out: In-Vitro Antiviral Screening Result (EC50) H
[3] = read-out: In-Vitro Antiviral Screening Result (EC50) F
[4] = read-out: In-Vitro Antiviral Screening Result (EC50) E

SMILES	EC50 [1] [µg/mL]	EC50 (many virus) [µg/mL]	EC50 (SARS coronavirus; [3]) [µg/mL]	EC50 (Rift Valley fever virus; [4]) [µg/mL]	EC50 [2] [µg/mL]	EC50 (Influenza A virus H1N1) [µg/mL]	EC50 (SARS coronavirus; read-out: EC50 against virus F) [µg/mL]	EC50 (Rift Valley fever virus; read-out: EC50 against virus E) [µg/mL]
CN1C(=O)CN2C=C(/C=C3C=C(/C=C/C4C5(CCC6[C@]4(C)CC[C@@H](O)[C@@]6(C)CO)CO5)C(=O)O\3)C=CC21 (stereo partly shown) [Example 68, 11,12-dedihydro-14-deoxy-(E)-15-((1-methyl-2-oxo-1,2,3,8a-tetrahydroimidazo[1,2-a]pyridin-6-yl)methylene)-8,17-epoxyandrographolide]	< 50	< 50	< 50	> 100	< 50	> 100		
C=C1CCC2C(C)(CO)C(O)CCC2(C)C1/C=C/C1=CC(=C\c2ccc(Cl)cc2Cl)/OC1=O (stereo not shown) [Example 35, 11,12-dedihydro-14-deoxy-(E)-15-(2,4-dichlorobenzylidene)andrographolide]	< 50	< 50	< 50	> 100	< 50	< 50		
COc1cc(/C=C2C=C(/C=C/C3C4(CCC5[C@]3(C)CC[C@@H](O)[C@@]5(C)CO)CO4)C(=O)O\2)cc([N+](=O)[O-])c1O (stereo partly shown) [Example 41, 11,12-dedihydro-14-deoxy-(E)-15-(4-hydroxy-3-methoxy-5-nitrobenzylidene)-8,17-epoxyandrographolide]	> 100	< 50	< 100	< 50	> 100	< 100		
C=C1CCC2[C@](C)(CC[C@@H](O)[C@@]2(C)CO)C1/C=C/C1=CC(=C\c2cnc(N)[nH]c2=O)/OC1=O (stereo partly shown) [Example 50, 11,12-dedihydro-14-deoxy-15-(2-amino-4-oxo-3H-pyrimidine-5-ylmethylene)andrographolide]	< 50	< 50	< 100	< 100	< 50	< 50		
CN(C)c1ccc(/C=C2C=C(/C=C/C3C4(CCC5[C@]3(C)CC[C@@H](O)[C@@]5(C)CO)CO4)C(=O)O\2)c(O)c1 (stereo partly shown) [Example 78]	< 100	< 50	< 50	< 100	< 100	> 100		
C=C1CCC2C(C)(CO)C(O)CCC2(C)C1CC(NC12CN3CN(CN(C3)C1)C2)C1=CCOC1=O (stereo not shown) [Example 57, 12-((1s,3s,5s)-1,3,5-triazaadamantan-7-ylamino)-14-deoxyandrographolide]	< 50		< 50	< 50	< 50	< 50	< 1	< 1
C=C1CCC2C(C)(CO)C(O)CCC2(C)C1CC(Nc1cccc(Cl)c1)C1=CCOC1=O (stereo not shown) [Example 53, 12-((3-chlorophenyl)amino)-14-deoxyandrographolide]	< 50		< 50	< 10	< 50	< 50	< 1	< 1
C=C1C(N2CCOCC2)CC2[C@](C)(CC[C@@H](O)[C@@]2(C)CO)C1/C=C/C1=CC(=C\c2ccc(N(C)C)cc2)/OC1=O (stereo partly shown) [Example 124]	< 50	< 50	< 50	< 50	< 50	< 100		
C=C1CCC2C3(C)COC(c4ccc(OC5OC(CO)C(O)C(O)C5O)cc4)OC3CCC2(C)C1C/C=C1/C(=O)OCC1O (stereo not shown) [Example 45, (E)-3-(2-(6a,10b-dimethyl-8-methylene-3-(4-((3,4,5-trihydroxy-6-(hydroxymethyl)tetrahydro-2H-pyran-2-yl)oxy)phenyl)decahydro-1H-naphtho[2,1-d][1,3]dioxin-7-yl)ethylidene)-4-hydroxydihydrofuran-2(3H)-one]	< 50	< 50	< 50	< 50	< 50	> 100		
C[C@]12CC[C@@H](O)[C@@](C)(CO)C1CCC1(CO1)C2/C=C/C1=CC(=C\c2cnc(N3CCCC3CO)nc2)/OC1=O (stereo partly shown) [Example 69, 11,12-dedihydro-14-deoxy-(E)-15-((2-(2-(hydroxymethyl)pyrrolidin-1-yl)pyrimidin-5-yl)methylene)-8,17-epoxyandrographolide]	> 100	< 50	< 50	< 50	> 100	< 100		
C=C1C(NC(C)C(=O)NC2=NCC=N2)CC2[C@](C)(CC[C@@H](O)[C@@]2(C)CO)C1/C=C/C1=CC(=C\c2ccc(N(C)C)cc2)/OC1=O (stereo partly shown) [Example 188]	< 100	< 50	< 50	< 100	< 100	> 100		
CN(C)c1ccc(/C=C2C=C(/C=C/C3C4(CO4)C(N4CCOCC4)CC4[C@]3(C)CC[C@@H](O)[C@@]4(C)CO)C(=O)O\2)cc1 (stereo partly shown) [Example 76, 7-(4-morpholino)-11,12-dedihydro-14-deoxy-15-(4-(dimethylamino)benzylidene)andrographolide]	> 100	< 50	< 50	< 100	> 100	< 100		
CC(=O)OCC1(C)C(OC(C)=O)CCC2(C)C(/C=C/C3=CCOC3=O)C3C(=Nc4cncn43)CC12 (stereo not shown) [Example 95]	< 100	< 50	< 50	> 100	> 100	< 50		
CN1CCN(c2ccc(/C=C3C=C(/C=C/C4C5(CCC6[C@]4(C)CC[C@@H](O)[C@@]6(C)CO)CO5)C(=O)O\3)cc2)CC1 (stereo partly shown) [Example 71, 11,12-dedihydro-14-deoxy-(E)-15-(4-(4-methylpiperazin-1-yl)benzylidene)-8,17-epoxyandrographolide]	< 50	< 50	< 100	> 100	< 50	< 100		
C[C@]12CC[C@@H](O)[C@@](C)(CO)C1CCC1(CO1)C2/C=C/C1=CC(=C\c2ccc(-n3ccnc3)cc2)/OC1=O (stereo partly shown) [Example 77, 11,12-dedihydro-14-deoxy-(E)-15-(4-(1H-imidazol-1-yl)benzylidene)-8,17-epoxyandrographolide]	> 100	< 50	< 100	< 50	< 100	< 100		
Cn1cc(/C=C2C=C(/C=C/C3C4(CCC5[C@]3(C)CC[C@@H](O)[C@@]5(C)CO)CO4)C(=O)O\2)c2cnc(N)nc21 (stereo partly shown) [Example 59, 11,12-dedihydro-14-deoxy-(E)-15-((2-amino-7-methyl-7H-pyrrolo[2,3-d]pyrimidin-5-yl)methylene)-8,17-epoxyandrographolide]	> 100	< 50	< 50	< 50	> 100	< 100		
C[C@]12CC[C@@H](O)[C@@](C)(CO)C1CCC1(CO1)C2/C=C/C1=CC(=C\c2cnc(N)[nH]c2=O)/OC1=O (stereo partly shown) [Example 38, 11,12-dedihydro-14-deoxy-15-(2-amino-5-oxygen-3H-pyrimidine-5-ylmethylene)-8,17-epoxyandrographolide]	< 100	< 50	< 50	> 100	< 100	< 100		
C=C1CCC2[C@](C)(CC[C@@H](O)[C@@]2(C)CO)C1/C=C/C1=CC(=C\C2=CN3CC(=O)N(C)C3C=C2)/OC1=O (stereo partly shown) [Example 63, 11,12-dedihydro-14-deoxy-(E)-15-((1-methyl-2-oxo-1,2,3,8a-tetrahydroimidazo[1,2-a]pyridin-6-yl)methylene)andrographolide]	< 100	< 50	< 50	< 50	< 100	< 50		
C=C1C(N2CCOCC2)CC2[C@](C)(CC[C@@H](O)[C@@]2(C)CO)C1/C=C/C1=CCOC1=O (stereo partly shown) [Example 83]	< 50		< 50	< 50	< 50	< 50	< 1	< 1
C=C1CCC2[C@](C)(CC[C@@H](O)[C@@]2(C)CO)C1/C=C/C1=CC(=C\c2cnc(N3CCCC3CO)nc2)/OC1=O (stereo partly shown) [Example 65, 11,12-dedihydro-14-deoxy-(E)-15-((2-(2-(hydroxymethyl)pyrrolidin-1-yl)pyrimidin-5-yl)methylene)andrographolide]	< 100	< 50	< 50	< 50	> 100	> 100		
C=C1CCC2C(C)(CO)C(O)CCC2(C)C1/C=C/C1=CC(=C\c2ccc(OC3OC(CO)C(O)C(O)C3O)cc2)/OC1=O (stereo not shown) [Example 40, 11,12-dedihydro-14-deoxy-15-(4-((3,4,5-trihydroxy-6-(hydroxymethyl)tetrahydro-2H-pyran-2-yl)oxy)benzylidene)andrographolide]	> 100	< 50	< 50	> 100	< 100	> 100		
C=C1CCC2[C@](C)(CC[C@@H](O)[C@@]2(C)CO)C1/C=C/C1=CC(=C\c2ccc(N(C)C)cc2)/OC1=O (stereo partly shown) [Example 37, 11,12-dedihydro-14-deoxy-15-(4-(dimethylamino)benzylidene)andrographolide]	< 50		< 50	< 50	< 50	< 50	< 1	< 1
